pIC50: −log10 of the molar value.
Molecular target: MCH receptor (Homo sapiens, UniProt Q99705)
Experiment: High throughput functional screening FLIPR/FDSS6000 (intracellular Ca2+ evoked by MCH)
Assay type: cell-based
Conditions: FLIPR/FDSS, antagonist activity vs 50 nM MCH; class by percent of control at 10^−7 M or IC50; read-out: class
In short: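 For antagonist testing, compound-treated cells (30 min, 37 °C) were stimulated with 50 nM MCH and intracellular Ca2+ followed by Fluo4 fluorescence on FLIPR/FDSS6000. Receptor was a constitutively active, non-endogenous MCH receptor; dye loading 4 μM Fluo4-AM, 1 h, 37 °C.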

| SMILES | pIC50 |
| --- | --- |
| Cc1cnc(N[C@H]2CC[C@@H](NC(=O)Nc3cccc(Cl)c3Cl)CC2)nc1N(C)C [Example 3343, N-(2,3-dichlorophenyl)-N′-(cis-4-{[4-(dimethylamino)-5-methylpyrimidin-2-yl]amino}cyclohexyl)urea] | < 6.70 |
| Cc1cnc(N[C@H]2CC[C@@H](NC(=O)Nc3c(Cl)cccc3C(F)(F)F)CC2)nc1N(C)C [Example 3344, N-[2-chloro-6-(trifluoromethyl)phenyl]-N′-(cis-4-{[4-(dimethylamino)-5-methylpyrimidin-2-yl]amino}cyclohexyl)urea] | < 6.70 |
| Cc1cnc(N[C@H]2CC[C@@H](NC(=O)Nc3c(Cl)cc(Cl)cc3Cl)CC2)nc1N(C)C [Example 3345, N-(cis-4-{[4-(dimethylamino)-5-methylpyrimidin-2-yl]amino}cyclohexyl)-N′-(2,4,6-trichlorophenyl)urea] | > 7.30 |
| Cc1cnc(N[C@H]2CC[C@@H](NC(=O)N(C)c3ccccc3F)CC2)nc1N(C)C [Example 3346, N′-(cis-4-{[4-(dimethylamino)-5-methylpyrimidin-2-yl]amino}cyclohexyl)-N-(2-fluorophenyl)-N-methylurea] | < 6.70 |
| Cc1cnc(N[C@H]2CC[C@@H](NC(=O)N(C)c3ccccc3Cl)CC2)nc1N(C)C [Example 3347, N-(2-chlorophenyl)-N′-(cis-4-{[4-(dimethylamino)-5-methylpyrimidin-2-yl]amino}cyclohexyl)-N-methylurea] | 6.70 to 7.30 |
| Cc1cnc(N[C@H]2CC[C@@H](NC(=O)N(C)c3ccc(Cl)cc3Cl)CC2)nc1N(C)C [Example 3348, N-(2,4-dichlorophenyl)-N′-(cis-4-{[4-(dimethylamino)-5-methylpyrimidin-2-yl]amino}cyclohexyl)-N-methylurea] | > 7.30 |
| CCN(C(=O)N[C@H]1CC[C@@H](Nc2ncc(C)c(N(C)C)n2)CC1)c1ccccc1OC(F)(F)F [Example 3349, N′-(cis-4-{[4-(dimethylamino)-5-methylpyrimidin-2-yl]amino}cyclohexyl)-N-ethyl-N-[2-(trifluoromethoxy)-phenyl]urea] | 6.70 to 7.30 |
| CCN(C(=O)N[C@H]1CC[C@@H](Nc2ncc(C)c(N(C)C)n2)CC1)c1ccccc1 [Example 3350, N′-(cis-4-{[4-(dimethylamino)-5-methylpyrimidin-2-yl]amino}cyclohexyl)-N-ethyl-N-phenylurea] | > 7.30 |
| CCN(C(=O)N[C@H]1CC[C@@H](Nc2ncc(C)c(N(C)C)n2)CC1)c1ccc(OC(F)(F)F)cc1 [Example 3351, N′-(cis-4-{[4-(dimethylamino)-5-methylpyrimidin-2-yl]amino}cyclohexyl)-N-ethyl-N-[4-(trifluoromethoxy)-phenyl]urea] | > 7.30 |
| Cc1cnc(N[C@H]2CC[C@@H](NC(=O)N(C)c3ccccc3OC(F)(F)F)CC2)nc1N(C)C [Example 3352, N′-(cis-4-{[4-(dimethylamino)-5-methylpyrimidin-2-yl]amino}cyclohexyl)-N-methyl-N-[2-(trifluoromethoxy)-phenyl]urea] | > 7.30 |
| CCN(C(=O)N[C@H]1CC[C@@H](Nc2ncc(C)c(N(C)C)n2)CC1)c1ccc(Cl)cc1 [Example 3353, N-(4-chlorophenyl)-N′-(cis-4-{[4-(dimethylamino)-5-methylpyrimidin-2-yl]amino}cyclohexyl)-N-ethylurea] | > 7.30 |
| CCN(C(=O)N[C@H]1CC[C@@H](Nc2ncc(C)c(N(C)C)n2)CC1)c1cc(C(F)(F)F)cc(C(F)(F)F)c1 [Example 3354, N-[3,5-bis(trifluoromethyl)phenyl]-N′-(cis-4-{[4-(dimethylamino)-5-methylpyrimidin-2-yl]amino}cyclohexyl)-N-ethylurea] | > 7.30 |
| CCN(C(=O)N[C@H]1CC[C@@H](Nc2ncc(C)c(N(C)C)n2)CC1)c1cccc(C)c1 [Example 3355, N′-(cis-4-{[4-(dimethylamino)-5-methylpyrimidin-2-yl]amino}cyclohexyl)-N-ethyl-N-(3-methylphenyl)urea] | > 7.30 |
| Cc1cnc(N[C@H]2CC[C@@H](NC(=O)COc3cc(C(F)(F)F)nn3C)CC2)nc1N(C)C [Example 3356, N-(cis-4-{[4-(dimethylamino)-5-methylpyrimidin-2-yl]amino}cyclohexyl)-2-{[1-methyl-3-(trifluoromethyl)-1H-pyrazol-5-yl]oxy}acetamide] | > 7.30 |

Further lines, results first:

| pIC50 | SMILES |
| --- | --- |
| < 6.70 | Cc1cnc(N[C@H]2CC[C@@H](NC(=O)COc3cc(C(F)(F)F)ncn3)CC2)nc1N(C)C [Example 3357, N-(cis-4-{[4-(dimethylamino)-5-methylpyrimidin-2-yl]amino}cyclohexyl)-2-{[6-(trifluoromethyl)pyrimidin-4-yl]oxy}acetamide] |
| > 7.30 | CNc1cc(C)nc(N[C@H]2CC[C@@H](NC(=O)COc3ccc(Cl)c(Cl)c3)CC2)n1 [Example 3360, 2-(3,4-dichlorophenoxy)-N-(cis-4-{[4-methyl-6-(methylamino)pyrimidin-2-yl]amino}cycohexyl)acetamide] |
| < 6.70 | CNc1nc(N[C@H]2CC[C@@H](NC(=O)COc3cc(C(F)(F)F)nn3C)CC2)ncc1C [Example 3362, N-(cis-4-{[5-methyl-4-(methylamino)pyrimidin-2-yl]amino}-cyclohexyl)-2-{[1-methyl-3-(trifluoromethyl)-1H-pyrazol-5-yl]oxy}acetamide] |
| < 6.70 | CNc1nc(N[C@H]2CC[C@@H](NC(=O)COc3cc(C(F)(F)F)ncn3)CC2)ncc1C [Example 3363, N-(cis-4-{[5-methyl-4-(methylamino)pyrimidin-2-yl]amino}-cyclohexyl)-2-{[6-(trifluoromethyl)pyrimidin-4-yl]oxy}acetamide] |
| < 6.70 | CNc1nc(N[C@H]2CC[C@@H](NC(=O)COc3cc(C(F)(F)F)n(C)n3)CC2)ncc1C [Example 3364, N-(cis-4-{[5-methyl-4-(methylamino)pyrimidin-2-yl]amino}-cyclohexyl)-2-{[1-methyl-5-(trifluoromethyl)-1H-pyrazol-3-yl]oxy}acetamide] |
| < 6.70 | Cc1cc(CN[C@H]2CC[C@@H](NC(=O)c3ccc(F)c(F)c3)CC2)nc2ccccc12 [Example 3366, 3,4-difluoro-N-(cis-4-{[(4-methylquinolin-2-yl)methyl]amino}cyclohexyl)benzamide] |
| 6.70 to 7.30 | Cc1cc(N(C)C)nc(N[C@H]2CC[C@@H](NC(=O)c3cccnc3S(=O)(=O)c3ccc(F)cc3)CC2)n1 [Example 3368, N-(cis-4-{[4-(dimethylamino)-6-methylpyrimidin-2-yl]amino}cyclohexyl)-2-[(4-fluorophenyl)sulfonyl]nicotinamide] |
| 6.70 to 7.30 | Cc1cc(N(C)C)nc(N[C@H]2CC[C@@H](NC(=O)c3cccnc3S(=O)(=O)c3ccccc3Cl)CC2)n1 [Example 3369, 2-[(2-chlorophenyl)sulfonyl]-N-(cis-4-{[4-(dimethylamino)-6-methylpyrimidin-2-yl]amino}cyclohexyl)nicotinamide] |
| 6.70 to 7.30 | Cc1cc(N(C)C)nc(N[C@H]2CC[C@@H](NC(=O)c3cccnc3S(=O)(=O)c3cccc(Cl)c3)CC2)n1 [Example 3370, 2-[(3-chlorophenyl)sulfonyl]-N-(cis-4-{[4-(dimethylamino)-6-methylpyrimidin-2-yl]amino}cyclohexyl)nicotinamide] |
| < 6.70 | Cc1cc(N(C)C)nc(N[C@H]2CC[C@@H](NC(=O)c3cccnc3S(=O)(=O)c3ccc(Cl)cc3)CC2)n1 [Example 3371, 2-[(4-chlorophenyl)sulfonyl]-N-(cis-4-{[4-(dimethylamino)-6-methylpyrimidin-2-yl]amino}cyclohexyl)nicotinamide] |
| < 6.70 | Cc1cc(N(C)C)nc(N[C@H]2CC[C@@H](NC(=O)c3cccnc3S(=O)(=O)c3ccccc3Br)CC2)n1 [Example 3372, 2-[(2-bromophenyl)sulfonyl]-N-(cis-4-{[4-(dimethylamino)-6-methylpyrimidin-2-yl]amino}cyclohexyl)nicotinamide] |
| 6.70 to 7.30 | Cc1cc(N(C)C)nc(N[C@H]2CC[C@@H](NC(=O)c3cccnc3S(=O)(=O)c3cccc(Br)c3)CC2)n1 [Example 3373, 2-[(3-bromophenyl)sulfonyl]-N-(cis-4-{[4-(dimethylamino)-6-methylpyrimidin-2-yl]amino}cyclohexyl)nicotinamide] |
| < 6.70 | Cc1cc(N(C)C)nc(N[C@H]2CC[C@@H](NC(=O)c3cccnc3S(=O)(=O)c3ccc(Br)cc3)CC2)n1 [Example 3374, 2-[(4-bromophenyl)sulfonyl]-N-(cis-4-{[4-(dimethylamino)-6-methylpyrimidin-2-yl]amino}cyclohexyl)nicotinamide] |
| 6.70 to 7.30 | Cc1cc(N(C)C)nc(N[C@H]2CC[C@@H](NC(=O)c3cccnc3S(=O)(=O)c3ccccc3C)CC2)n1 [Example 3375, N-(cis-4-{[4-(dimethylamino)-6-methylpyrimidin-2-yl]amino}cyclohexyl)-2-[(2-methylphenyl)sulfonyl]nicotinamide] |
| < 6.70 | Cc1cccc(S(=O)(=O)c2ncccc2C(=O)N[C@H]2CC[C@@H](Nc3nc(C)cc(N(C)C)n3)CC2)c1 [Example 3376, N-(cis-4-{[4-(dimethylamino)-6-methylpyrimidin-2-yl]amino}cyclohexyl)-2-[(3-methylphenyl)sulfonyl]nicotinamide] |
| 6.70 to 7.30 | Cc1ccc(S(=O)(=O)c2ncccc2C(=O)N[C@H]2CC[C@@H](Nc3nc(C)cc(N(C)C)n3)CC2)cc1 [Example 3377, N-(cis-4-{[4-(dimethylamino)-6-methylpyrimidin-2-yl]amino}cyclohexyl)-2-[(4-methylphenyl)sulfonyl]nicotinamide] |
| < 6.70 | COc1ccccc1S(=O)(=O)c1ncccc1C(=O)N[C@H]1CC[C@@H](Nc2nc(C)cc(N(C)C)n2)CC1 [Example 3378, N-(cis-4-{[4-(dimethylamino)-6-methylpyrimidin-2-yl]amino}cyclohexyl)-2-[(2-methoxyphenyl)sulfonyl]-nicotinamide] |
